# Measurements published in ChEMBL document CHEMBL3885861, “Open TG-GATES”.
# Species: Rattus norvegicus
# Experiment: Open TG-GATES - Regimen: Daily Repeat
# Format: toxicity, organism-based, Sprague-Dawley
# Design: regimen Daily Repeat, gender Male, age 6 weeks
# Details: in vivo, po, route gavage; for gamma-GTP / ALP / ALT / AST / BUN / CRE / Ca / DBIL / GLC / IP / K / LDH / Na / PL / RALB / TBIL / TC / TG / TP: tissue Plasma; for APTT / Bas / Eos / Fbg / Hb / Ht / Lym / MCH / MCHC / MCV / Mono / Neu / PT / Plat / RBC / Ret / WBC: tissue Blood; for KIDNEY_L / KIDNEY_R / KIDNEY_TOTAL: tissue Kidney; for LIVER: tissue Liver
# [1] = 10 mg/kg, 72 h, dose level Low, time 3 day
# [2] = 10 mg/kg, […], dose level Low, time 7 day
# [3] = 10 mg/kg, […], dose level Low, time 14 day
# [4] = 10 mg/kg, […], dose level Low, time 28 day
smiles,measurement,setting,value
CSc1ccc2c(c1)N(CCC1CCCCN1C)c1ccccc1S2 (centres undefined) [THIORIDAZINE],gamma-GTP,"0 mg/kg, […], dose level Control, time 28 day",1.4 IU/L
same,TERMINAL_BW,[1],239 g
same,APTT,[1],16.3 s
same,Bas,[1],0%
same,Eos,[1],1%
same,Fbg,[1],219.4 mg/dL
same,Hb,[1],13.5 g/dL
same,Ht,[1],40.6%
same,Lym,[1],81%
same,MCH,[1],21.2 pg
same,MCHC,[1],33.3%
same,MCV,[1],63.6 fL
same,Mono,[1],5.8%
same,Neu,[1],12.4%
same,PT,[1],11.9 s
same,Plat,[1],107.3 x10_4/uL
same,RBC,[1],638.4 x10_4/ul
same,Ret,[1],8.8%
same,WBC,[1],136.6 x10_2/uL
same,KIDNEY_L,[1],1.1 g
same,KIDNEY_R,[1],1.1 g
same,KIDNEY_TOTAL,[1],2.2 g
same,LIVER,[1],12.5 g
same,ALP,[1],797.8 IU/L
same,ALT,[1],35.6 IU/L
same,AST,[1],62.2 IU/L
same,BUN,[1],17.2 mg/dL
same,CRE,[1],0.5 mg/dL
same,Ca,[1],11 mg/dL
same,DBIL,[1],0.042 mg/dL
same,GLC,[1],193.2 mg/dL
same,IP,[1],9 mg/dL
same,K,[1],4.7 meq/L
same,LDH,[1],82 IU/L
same,Na,[1],138.2 meq/L
same,PL,[1],163 mg/dL
same,RALB,[1],3.9 g/dL
same,TBIL,[1],0.3 mg/dL
same,TC,[1],81.8 mg/dL
same,TG,[1],137 mg/dL
same,TP,[1],5.9 g/dL
same,gamma-GTP,[1],1.6 IU/L
same,TERMINAL_BW,[2],268.9 g
same,TERMINAL_BW,[3],333.8 g
same,TERMINAL_BW,[4],403.9 g
same,APTT,[2],16.8 s
same,Bas,[2],0%
same,Eos,[2],0.8%
same,Fbg,[2],223 mg/dL
same,Hb,[2],13.9 g/dL
same,Ht,[2],41.4%
same,Lym,[2],79.2%
same,MCH,[2],20.6 pg
same,MCHC,[2],33.5%
same,MCV,[2],61.5 fL
same,Mono,[2],7%
same,Neu,[2],13.2%
same,PT,[2],12.1 s
same,Plat,[2],118.8 x10_4/uL
same,RBC,[2],674.2 x10_4/ul
same,Ret,[2],5.2%
same,WBC,[2],127.5 x10_2/uL
same,APTT,[3],17.3 s
same,Bas,[3],0%
same,Eos,[3],0.8%
same,Fbg,[3],237.8 mg/dL
same,Hb,[3],14.7 g/dL
same,Ht,[3],43.8%
same,Lym,[3],84.4%
same,MCH,[3],20.8 pg
same,MCHC,[3],33.6%
same,MCV,[3],62.1 fL
same,Mono,[3],5.8%
same,Neu,[3],9%
same,PT,[3],11.7 s
same,Plat,[3],115 x10_4/uL
same,RBC,[3],706.6 x10_4/ul
same,Ret,[3],4.2%
same,WBC,[3],167.8 x10_2/uL
same,APTT,[4],17.6 s
same,Bas,[4],0%
same,Eos,[4],1%
same,Fbg,[4],233 mg/dL
same,Hb,[4],15.4 g/dL
same,Ht,[4],45.5%
same,Lym,[4],83.6%
same,MCH,[4],19.8 pg
same,MCHC,[4],33.9%
same,MCV,[4],58.3 fL
same,Mono,[4],6.2%
same,Neu,[4],9.6%
same,PT,[4],12.1 s
same,Plat,[4],121.4 x10_4/uL
same,RBC,[4],780.6 x10_4/ul
same,Ret,[4],2.6%
same,WBC,[4],150 x10_2/uL
same,KIDNEY_L,[2],1.1 g
same,KIDNEY_R,[2],1.1 g
same,KIDNEY_TOTAL,[2],2.3 g
same,KIDNEY_L,[3],1.3 g
same,KIDNEY_R,[3],1.4 g
same,KIDNEY_TOTAL,[3],2.7 g
same,KIDNEY_L,[4],1.5 g
same,KIDNEY_R,[4],1.5 g
same,KIDNEY_TOTAL,[4],3 g
same,LIVER,[2],13.2 g
same,LIVER,[3],15.4 g
same,LIVER,[4],17.2 g
same,ALP,[2],792.4 IU/L
same,ALT,[2],34 IU/L
same,AST,[2],61 IU/L
same,BUN,[2],18.4 mg/dL
same,CRE,[2],0.5 mg/dL
same,Ca,[2],11.1 mg/dL
same,DBIL,[2],0 mg/dL
same,GLC,[2],197.2 mg/dL
same,IP,[2],8.3 mg/dL
same,K,[2],4.8 meq/L
same,LDH,[2],84 IU/L
same,Na,[2],139.4 meq/L
same,PL,[2],172.8 mg/dL
same,RALB,[2],4 g/dL
same,TBIL,[2],0.3 mg/dL
same,TC,[2],88.4 mg/dL
same,TG,[2],118.6 mg/dL
same,TP,[2],6 g/dL
same,gamma-GTP,[2],1.2 IU/L
same,ALP,[3],779.6 IU/L
same,ALT,[3],33.6 IU/L
same,AST,[3],62.8 IU/L
same,BUN,[3],20.4 mg/dL
same,CRE,[3],0.6 mg/dL
same,Ca,[3],10.9 mg/dL
same,DBIL,[3],0.002 mg/dL
same,GLC,[3],178.6 mg/dL
same,IP,[3],7.8 mg/dL
same,K,[3],5.2 meq/L
same,LDH,[3],110.2 IU/L
same,Na,[3],139.4 meq/L
same,PL,[3],167.8 mg/dL
same,RALB,[3],4.1 g/dL
same,TBIL,[3],0.3 mg/dL
same,TC,[3],81.2 mg/dL
same,TG,[3],158 mg/dL
same,TP,[3],6.3 g/dL
same,gamma-GTP,[3],1.2 IU/L
same,ALP,[4],564 IU/L
same,ALT,[4],32.4 IU/L
same,AST,[4],63.4 IU/L
same,BUN,[4],21.2 mg/dL
same,CRE,[4],0.6 mg/dL
same,Ca,[4],10.7 mg/dL
same,DBIL,[4],0 mg/dL
same,GLC,[4],180.8 mg/dL
same,IP,[4],7.3 mg/dL
same,K,[4],4.3 meq/L
same,LDH,[4],131.8 IU/L
same,Na,[4],140.4 meq/L
same,PL,[4],162.4 mg/dL
same,RALB,[4],4.2 g/dL
same,TBIL,[4],0.2 mg/dL
same,TC,[4],74 mg/dL
same,TG,[4],177.2 mg/dL
same,TP,[4],6.4 g/dL
